According to ChEMBL document CHEMBL1201862, “PubChem BioAssay data set” (2004):
Calls of active or inactive are those of the source.

What was measured:
[1] = loss of viability in HepG2 cells – cell-based, CellTiter-Glo, cherry-picked, cytotoxicity control for Shn3 inhibitor project, dose response (AID 624134); type: functional
cells = type: functional, cell-based
[2] = tested on: Streptococcus sp. 'group A'; test: Streptococcus pyogenes SK(-)GAS viability under kanamycin – luminescence, BacTiterGlo, confirmation, counter-screen for streptokinase expression inhibitor project, dose response (AID 1900); type: functional, organism-based
[3] = target: 3-phosphoinositide-dependent protein kinase 1 (Homo sapiens, UniProt O15530); type: functional;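 also: value comes from the Navigating the Kinome panel, PDPK1 member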
[4] = target: Serine/threonine-protein kinase Chk2 (Homo sapiens, UniProt O96017); type: functional;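 also: CHEK2 entry within a kinome-wide screening panel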
Sequence of Serine/threonine-protein kinase Chk2 (O96017 whole entry): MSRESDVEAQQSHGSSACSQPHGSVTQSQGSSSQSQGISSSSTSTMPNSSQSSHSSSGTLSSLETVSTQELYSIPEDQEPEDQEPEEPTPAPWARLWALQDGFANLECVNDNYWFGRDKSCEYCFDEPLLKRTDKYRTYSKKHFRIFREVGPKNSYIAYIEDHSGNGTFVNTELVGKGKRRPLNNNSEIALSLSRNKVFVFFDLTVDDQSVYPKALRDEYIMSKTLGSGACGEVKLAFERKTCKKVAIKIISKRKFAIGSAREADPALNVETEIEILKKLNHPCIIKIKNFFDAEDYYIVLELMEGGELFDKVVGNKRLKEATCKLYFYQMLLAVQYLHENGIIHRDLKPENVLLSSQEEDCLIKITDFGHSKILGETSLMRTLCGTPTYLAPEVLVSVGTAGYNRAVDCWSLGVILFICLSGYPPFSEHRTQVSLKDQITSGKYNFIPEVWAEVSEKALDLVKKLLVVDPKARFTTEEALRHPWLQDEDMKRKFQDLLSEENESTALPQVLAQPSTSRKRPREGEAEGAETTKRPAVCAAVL

[5] = target: Protein kinase C delta type (Homo sapiens, UniProt Q05655); type: functional
[6] = target: RAC-alpha serine/threonine-protein kinase (Homo sapiens, UniProt P31749); type: functional;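 also: AKT1 affinity measured as one member of a kinome-wide kinase profiling panel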
Sequence of RAC-alpha serine/threonine-protein kinase (P31749 whole entry): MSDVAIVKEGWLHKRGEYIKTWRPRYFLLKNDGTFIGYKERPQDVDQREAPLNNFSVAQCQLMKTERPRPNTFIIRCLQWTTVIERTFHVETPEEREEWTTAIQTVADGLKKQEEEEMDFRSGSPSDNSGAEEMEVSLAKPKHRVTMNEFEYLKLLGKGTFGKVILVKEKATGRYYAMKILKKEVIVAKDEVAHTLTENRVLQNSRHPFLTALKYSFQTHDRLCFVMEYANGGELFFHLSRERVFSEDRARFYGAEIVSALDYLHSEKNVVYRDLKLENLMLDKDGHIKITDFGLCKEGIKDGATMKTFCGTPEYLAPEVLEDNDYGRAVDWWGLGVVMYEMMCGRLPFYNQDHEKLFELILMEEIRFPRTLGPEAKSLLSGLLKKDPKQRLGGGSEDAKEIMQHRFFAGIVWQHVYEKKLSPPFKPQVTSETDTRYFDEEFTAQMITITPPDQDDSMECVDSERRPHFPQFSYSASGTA

[7] = target: MAP/microtubule affinity-regulating kinase 3 (Homo sapiens, UniProt P27448); type: functional;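 also: MARK3 affinity measured as one member of a kinome panel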
Sequence of MAP/microtubule affinity-regulating kinase 3 (P27448 whole entry): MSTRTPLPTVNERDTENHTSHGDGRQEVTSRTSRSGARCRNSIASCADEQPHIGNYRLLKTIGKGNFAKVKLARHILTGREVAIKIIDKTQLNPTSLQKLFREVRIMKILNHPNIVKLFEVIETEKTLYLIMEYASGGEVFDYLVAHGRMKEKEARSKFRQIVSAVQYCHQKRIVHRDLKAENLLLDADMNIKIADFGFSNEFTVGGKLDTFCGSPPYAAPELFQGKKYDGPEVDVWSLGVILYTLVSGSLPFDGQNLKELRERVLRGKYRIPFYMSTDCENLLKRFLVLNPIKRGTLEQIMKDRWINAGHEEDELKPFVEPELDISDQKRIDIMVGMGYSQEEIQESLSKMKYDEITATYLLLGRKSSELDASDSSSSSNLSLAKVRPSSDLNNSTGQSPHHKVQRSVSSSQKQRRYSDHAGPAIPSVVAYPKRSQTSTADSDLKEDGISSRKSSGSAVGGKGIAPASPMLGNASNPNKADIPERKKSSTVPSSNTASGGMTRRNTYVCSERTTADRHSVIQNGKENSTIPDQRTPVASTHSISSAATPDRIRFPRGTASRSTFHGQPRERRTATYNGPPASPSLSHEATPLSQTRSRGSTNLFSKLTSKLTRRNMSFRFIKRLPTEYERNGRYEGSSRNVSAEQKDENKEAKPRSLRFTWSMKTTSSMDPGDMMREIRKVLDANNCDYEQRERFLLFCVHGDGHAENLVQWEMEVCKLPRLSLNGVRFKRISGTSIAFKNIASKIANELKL

[8] = target: Serine/threonine-protein kinase pim-3 (Homo sapiens, UniProt Q86V86); type: functional;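 also: value obtained as one member of a broad kinase panel profiling effort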
[9] = target: Testis-specific serine/threonine-protein kinase 1 (Homo sapiens, UniProt Q9BXA7); type: functional
Sequence of Testis-specific serine/threonine-protein kinase 1 (Q9BXA7 whole entry): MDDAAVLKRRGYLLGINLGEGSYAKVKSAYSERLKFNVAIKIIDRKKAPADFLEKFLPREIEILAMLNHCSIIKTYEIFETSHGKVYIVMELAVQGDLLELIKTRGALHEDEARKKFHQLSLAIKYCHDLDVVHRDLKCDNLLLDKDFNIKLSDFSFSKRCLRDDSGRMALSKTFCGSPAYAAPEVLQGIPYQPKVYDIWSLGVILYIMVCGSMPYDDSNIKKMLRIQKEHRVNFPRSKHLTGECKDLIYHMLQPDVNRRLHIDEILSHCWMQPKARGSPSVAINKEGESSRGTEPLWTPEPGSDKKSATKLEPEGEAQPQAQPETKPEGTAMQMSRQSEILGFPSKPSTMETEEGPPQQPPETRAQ

[10] = target: MAP kinase-activated protein kinase 3 (Homo sapiens, UniProt Q16644); type: functional;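 also: value comes from a kinome-wide profiling panel in which MAPKAPK3 is one of the panel members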
Sequence of MAP kinase-activated protein kinase 3 (Q16644 whole entry): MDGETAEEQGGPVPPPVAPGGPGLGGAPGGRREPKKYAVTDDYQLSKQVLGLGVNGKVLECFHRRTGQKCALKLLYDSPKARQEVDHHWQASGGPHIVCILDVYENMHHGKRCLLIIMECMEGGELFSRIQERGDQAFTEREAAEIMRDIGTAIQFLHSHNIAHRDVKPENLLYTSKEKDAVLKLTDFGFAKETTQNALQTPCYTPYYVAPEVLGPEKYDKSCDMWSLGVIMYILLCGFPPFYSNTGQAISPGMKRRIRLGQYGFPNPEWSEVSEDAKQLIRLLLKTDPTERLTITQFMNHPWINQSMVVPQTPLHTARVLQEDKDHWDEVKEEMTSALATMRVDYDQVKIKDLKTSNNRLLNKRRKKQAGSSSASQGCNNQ

[11] = target: Non-receptor tyrosine-protein kinase TYK2 (Homo sapiens, UniProt P29597); type: functional
[12] = target: Cyclin-dependent kinase 1 (Homo sapiens, UniProt P06493); type: functional;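 also: Kinome-wide panel profiling, with the target listed as panel member CDC2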
Sequence of Cyclin-dependent kinase 1 (P06493 whole entry): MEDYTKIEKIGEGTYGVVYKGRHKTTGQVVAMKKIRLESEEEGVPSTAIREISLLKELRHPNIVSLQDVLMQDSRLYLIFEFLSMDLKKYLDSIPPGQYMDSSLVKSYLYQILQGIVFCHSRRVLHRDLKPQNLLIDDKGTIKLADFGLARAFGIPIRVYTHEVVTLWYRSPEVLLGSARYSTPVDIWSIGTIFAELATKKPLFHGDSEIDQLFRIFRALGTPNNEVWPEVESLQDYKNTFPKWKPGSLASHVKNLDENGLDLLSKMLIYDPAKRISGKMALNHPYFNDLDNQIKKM

[13] = target: Dual specificity tyrosine-phosphorylation-regulated kinase 4 (Homo sapiens, UniProt Q9NR20); type: functional
Sequence of Dual specificity tyrosine-phosphorylation-regulated kinase 4 (Q9NR20 whole entry): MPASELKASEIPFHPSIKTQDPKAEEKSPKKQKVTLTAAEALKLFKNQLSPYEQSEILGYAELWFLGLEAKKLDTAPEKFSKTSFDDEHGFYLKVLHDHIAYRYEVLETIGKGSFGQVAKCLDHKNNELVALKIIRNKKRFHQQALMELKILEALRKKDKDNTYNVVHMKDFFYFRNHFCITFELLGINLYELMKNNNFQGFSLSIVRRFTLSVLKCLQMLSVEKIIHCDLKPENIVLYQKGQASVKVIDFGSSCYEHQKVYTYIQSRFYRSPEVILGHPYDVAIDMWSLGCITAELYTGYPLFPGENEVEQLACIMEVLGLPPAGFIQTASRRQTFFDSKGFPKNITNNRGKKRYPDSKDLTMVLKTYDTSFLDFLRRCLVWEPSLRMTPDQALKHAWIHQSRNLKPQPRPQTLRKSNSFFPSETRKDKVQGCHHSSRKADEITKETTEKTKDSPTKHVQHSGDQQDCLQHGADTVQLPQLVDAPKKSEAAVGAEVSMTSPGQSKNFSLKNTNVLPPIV

[14] = target: Ribosomal protein S6 kinase alpha-3 (Homo sapiens, UniProt P51812); type: functional;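 also: measured within a kinome-wide profiling panel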
Sequence of Ribosomal protein S6 kinase alpha-3 (P51812 whole entry): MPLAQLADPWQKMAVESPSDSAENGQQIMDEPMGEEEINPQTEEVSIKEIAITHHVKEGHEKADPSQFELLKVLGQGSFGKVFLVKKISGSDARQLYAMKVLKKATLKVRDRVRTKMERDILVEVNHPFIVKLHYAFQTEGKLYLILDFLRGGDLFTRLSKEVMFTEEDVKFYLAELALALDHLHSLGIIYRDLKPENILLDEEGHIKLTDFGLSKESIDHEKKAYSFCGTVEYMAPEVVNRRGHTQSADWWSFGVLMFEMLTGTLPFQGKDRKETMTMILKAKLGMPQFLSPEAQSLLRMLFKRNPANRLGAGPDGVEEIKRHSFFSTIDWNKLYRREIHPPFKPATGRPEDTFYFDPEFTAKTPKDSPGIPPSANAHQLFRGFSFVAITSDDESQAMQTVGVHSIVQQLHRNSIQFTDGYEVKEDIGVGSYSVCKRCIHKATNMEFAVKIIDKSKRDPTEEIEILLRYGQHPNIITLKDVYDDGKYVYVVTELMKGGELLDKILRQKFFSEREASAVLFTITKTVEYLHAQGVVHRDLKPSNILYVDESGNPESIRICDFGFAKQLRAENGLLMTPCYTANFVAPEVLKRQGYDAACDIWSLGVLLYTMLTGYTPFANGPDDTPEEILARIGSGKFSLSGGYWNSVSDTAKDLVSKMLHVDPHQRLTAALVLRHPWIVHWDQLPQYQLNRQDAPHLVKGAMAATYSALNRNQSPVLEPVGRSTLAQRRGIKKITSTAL

[15] = target: G protein-coupled receptor kinase 5 (Homo sapiens, UniProt P34947); test: Navigating the Kinome. Panel member name: GPRK5; type: functional
Sequence of G protein-coupled receptor kinase 5 (P34947 whole entry): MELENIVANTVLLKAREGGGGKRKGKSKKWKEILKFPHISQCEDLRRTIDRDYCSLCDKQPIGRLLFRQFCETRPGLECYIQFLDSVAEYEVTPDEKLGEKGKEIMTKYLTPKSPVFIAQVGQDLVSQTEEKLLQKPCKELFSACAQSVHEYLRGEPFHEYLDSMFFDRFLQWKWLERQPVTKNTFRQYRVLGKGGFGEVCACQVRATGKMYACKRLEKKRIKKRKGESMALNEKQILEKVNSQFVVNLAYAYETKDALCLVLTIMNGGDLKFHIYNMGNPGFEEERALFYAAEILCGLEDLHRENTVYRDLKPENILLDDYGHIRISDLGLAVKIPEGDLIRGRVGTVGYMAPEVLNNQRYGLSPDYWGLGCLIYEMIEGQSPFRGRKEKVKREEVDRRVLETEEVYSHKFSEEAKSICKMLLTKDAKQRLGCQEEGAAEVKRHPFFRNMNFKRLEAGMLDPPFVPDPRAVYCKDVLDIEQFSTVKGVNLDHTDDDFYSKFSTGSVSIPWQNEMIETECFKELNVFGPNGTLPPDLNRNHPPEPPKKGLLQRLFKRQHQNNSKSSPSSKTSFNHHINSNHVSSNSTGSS

[16] = target: T1, Sentrin-specific protease 7 (Homo sapiens, UniProt Q9BQF6); type: functional;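 also: Luminescence-based dose-response confirmation of ultra-high-throughput screening hits, measuring inhibition of SENP7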
T1 sequence (Q9BQF6 whole entry): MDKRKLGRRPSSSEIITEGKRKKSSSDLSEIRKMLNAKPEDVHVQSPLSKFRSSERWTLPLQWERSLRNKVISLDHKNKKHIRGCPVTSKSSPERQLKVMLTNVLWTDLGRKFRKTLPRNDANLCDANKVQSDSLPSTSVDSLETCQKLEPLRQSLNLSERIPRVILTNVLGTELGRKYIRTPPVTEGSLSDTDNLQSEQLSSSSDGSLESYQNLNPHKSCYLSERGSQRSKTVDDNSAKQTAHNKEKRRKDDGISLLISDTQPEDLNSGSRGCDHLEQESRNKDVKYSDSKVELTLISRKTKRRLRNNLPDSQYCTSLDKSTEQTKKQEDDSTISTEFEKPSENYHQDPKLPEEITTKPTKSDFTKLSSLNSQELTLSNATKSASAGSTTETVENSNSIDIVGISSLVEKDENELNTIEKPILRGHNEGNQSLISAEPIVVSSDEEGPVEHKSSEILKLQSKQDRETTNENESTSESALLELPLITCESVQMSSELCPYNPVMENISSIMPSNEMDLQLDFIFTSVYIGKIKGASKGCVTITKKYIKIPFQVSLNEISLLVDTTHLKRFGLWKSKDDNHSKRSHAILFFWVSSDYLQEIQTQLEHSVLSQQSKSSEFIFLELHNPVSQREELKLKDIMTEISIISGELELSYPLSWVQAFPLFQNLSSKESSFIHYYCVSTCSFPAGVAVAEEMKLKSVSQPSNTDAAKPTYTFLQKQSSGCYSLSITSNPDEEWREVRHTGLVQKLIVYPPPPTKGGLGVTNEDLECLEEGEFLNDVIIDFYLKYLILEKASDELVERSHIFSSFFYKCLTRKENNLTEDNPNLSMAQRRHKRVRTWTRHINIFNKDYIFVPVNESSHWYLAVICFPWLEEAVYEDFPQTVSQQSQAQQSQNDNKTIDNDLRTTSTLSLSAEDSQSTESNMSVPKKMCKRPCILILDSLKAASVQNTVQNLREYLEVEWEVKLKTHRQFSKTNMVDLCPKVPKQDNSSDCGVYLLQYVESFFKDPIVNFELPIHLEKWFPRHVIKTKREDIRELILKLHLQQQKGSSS

Protein RecA = target: T2, Protein RecA (Mycobacterium tuberculosis, UniProt P9WHJ3); test: Fluorescence Cell-Free Homogeneous Dose Retest to Identify Inhibitors of RecA-Intein Splicing Activity. [Related pubchem assays (depositor defined):AID2097, AID2223, AID489010, AID492950]; type: functional
T2 sequence (P9WHJ3 whole entry): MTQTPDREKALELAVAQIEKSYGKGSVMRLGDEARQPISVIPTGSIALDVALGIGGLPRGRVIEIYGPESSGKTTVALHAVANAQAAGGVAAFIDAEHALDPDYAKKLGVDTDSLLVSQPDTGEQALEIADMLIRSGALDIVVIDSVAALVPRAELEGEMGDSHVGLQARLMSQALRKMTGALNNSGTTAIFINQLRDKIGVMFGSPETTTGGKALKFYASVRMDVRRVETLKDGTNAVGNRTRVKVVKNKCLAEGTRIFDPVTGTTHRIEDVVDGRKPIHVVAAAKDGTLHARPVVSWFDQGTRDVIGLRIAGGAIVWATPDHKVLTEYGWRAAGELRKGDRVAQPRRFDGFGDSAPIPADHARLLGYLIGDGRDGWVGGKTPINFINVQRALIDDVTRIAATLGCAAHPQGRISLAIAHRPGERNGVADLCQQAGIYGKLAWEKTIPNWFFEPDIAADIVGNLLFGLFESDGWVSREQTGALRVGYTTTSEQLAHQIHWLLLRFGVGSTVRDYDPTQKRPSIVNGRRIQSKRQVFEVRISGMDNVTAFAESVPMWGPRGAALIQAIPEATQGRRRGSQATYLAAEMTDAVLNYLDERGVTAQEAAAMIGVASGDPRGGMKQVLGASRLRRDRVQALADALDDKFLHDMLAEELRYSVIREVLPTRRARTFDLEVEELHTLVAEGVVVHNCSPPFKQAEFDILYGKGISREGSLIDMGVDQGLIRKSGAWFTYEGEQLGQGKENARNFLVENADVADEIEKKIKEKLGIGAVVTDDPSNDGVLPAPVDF

SMILES: Cc1cc(NC(c2ccc(Cl)cc2)c2ccc3cccnc3c2O)no1 (stereo not drawn)
- AC50 [1]: 1.27 µM (active)
- EC50 (cells): 6.45 µM (active)
- EC50 [2]: 0.416 µM (active)

SMILES: CS(=O)(=O)N(Cc1ccc2[nH]c(=O)c3cccn3c2c1)C1CC1
- Ki [3]: 0.0794 µM (active)
- Ki [4]: > 1.58 µM (inactive)
- Ki [5]: > 7.94 µM (inactive)
- Ki [6]: 0.0316 µM (active)
- Ki [7]: > 6.31 µM (inactive)
- Ki [8]: 2.51 µM (active)
- Ki [9]: > 1.58 µM (inactive)
- Ki [10]: 0.0501 µM (active)
- Ki [11]: > 2 µM (inactive)
- Ki [12]: > 7.94 µM (inactive)
- Ki [13]: 0.0398 µM (active)
- Ki [14]: > 2 µM (inactive)
- Ki [15]: > 3.98 µM (inactive)

SMILES: OCC[n+]1c2ccccc2nc2ccc(N3CCOCC3)cc21
- IC50 [16]: 28 µM (active)
- EC50 (Protein RecA): > 120 µM (inconclusive)
